Drawing on ChEMBL document CHEMBL5500356, “Design, synthesis, and biological evaluation of novel benzimidazole derivatives as anti-cervical cancer agents through PI3K/Akt/mTOR pathway and tubulin inhibition” (Eur J Med Chem, 2024), this text covers IC50, Activity and mortality for 21 molecules.

Data set [1] has as its system SiHa. Nature of the data set: Antiproliferative activity against human SiHa cells assessed as cell viability incubated for 48 hrs by MTT assay. It is filed as functional, cell-based.
The next data set relates to HeLa. Nature of the data set: Antiproliferative activity against human HeLa cells assessed as cell viability incubated for 48 hrs by MTT assay. It is filed as functional, cell-based.
In the next data set the test system is Ca-Ski. Description: Antiproliferative activity against human Ca-Ski cells assessed as cell viability incubated for 48 hrs by MTT assay. It is filed as functional, cell-based.
The nature of data set [2]: Cytotoxicity against human L02 cells assessed as cell viability incubated for 48 hrs by MTT assay. It is filed as toxicity, cell-based.
The nature of data set [3]: Cytotoxicity against human HEK293T cells assessed as cell viability incubated for 48 hrs by MTT assay. It is filed as toxicity, cell-based, HEK-293T.
For data set [4], the system named is SiHa. Nature of the data set: Induction of apoptosis in human SiHa cells assessed as late apoptotic cells at 16 uM incubated for 24 hr by flow cytometry based annexin V-FITC/PI double-staining analysis (reference value: 8.67%). In kind it is functional.
In data set [5] the test system is SiHa. Nature of the data set: Induction of apoptosis in human SiHa cells assessed as early apoptotic cells at 16 uM incubated for 24 hr by flow cytometry based annexin V-FITC/PI double-staining analysis (reference value: 2.95%). In kind it is functional.
The subject of data set [6] is SiHa. Description: Induction of cell cycle arrest in human SiHa cells assessed as accumulation cells at G0/G1 phase at 16 uM measured after 24 hrs by flow cytometry (reference value: 80.45%). In kind it is functional.
For data set [7], the system named is SiHa. Nature of the data set: Induction of cell cycle arrest in human SiHa cells assessed as accumulation cells at G2/M phase at 16 uM measured after 24 hrs by flow cytometry (reference value: 5.24%). In kind it is functional.
The subject of data set [8] is SiHa. Nature of the data set: Induction of cell cycle arrest in human SiHa cells assessed as accumulation cells at S phase at 16 uM measured after 24 hrs by flow cytometry (reference value: 14.31%). It is filed as functional.
A short description of data set [9]: Acute toxicity in AB-wild type zebrafish embryo assessed as mortalities at 400 uM measured after 96 hrs. Details: species or system Danio rerio. The conditions noted are these: in vivo, read-out: Activity.
A short description of data set [10]: Acute toxicity in AB-wild type zebrafish embryo assessed as malformation rate at 400 uM measured after 96 hrs. The conditions noted are these: in vivo. On the set-up: species or system Danio rerio.

Take `COc1cc(OC)c(-c2nc3cc(N4CCOCC4)c(C#Cc4ccccc4F)cc3[nH]2)cc1OC`: the IC50 in the data set with SiHa [1] turned out to be 27.2 µM; in the data set on HeLa, 20.1 µM; with Ca-Ski, 11.5 µM. The half-maximal inhibitory concentration (IC50) at 48 h in data set [2] was determined as 9.1 µM; in data set [3], 4.83 µM.
For `COc1cc(-c2nc3cc(N4CCOCC4)c(C#Cc4ccccc4F)cc3[nH]2)cc(OC)c1OC`, the IC50 in the data set on SiHa [1] is > 100 µM; with HeLa, 8.6 µM; in the data set on Ca-Ski it was 10.7 µM. Further, the IC50 at 48 h in [2] amounted to 6.98 µM; in [3], 38.6 µM.
Consider `COc1ccc(C#Cc2cc3[nH]c(-c4cc(OC)c(OC)c(OC)c4)nc3cc2N2CCN(C)CC2)cc1`, for which the concentration for half-maximal inhibition (IC50) with SiHa [1] worked out at 3.13 µM; in the data set on HeLa, 2.07 µM; in the data set with Ca-Ski it was 1.39 µM. For the same molecule, the half-maximal inhibitory concentration (IC50) at 48 h in data set [2] came out at 2.29 µM; in data set [3], 0.41 µM.
The corresponding values for `COc1cc(-c2nc3cc(N4CCOCC4)c(C#Cc4ccc(Cl)cc4)cc3[nH]2)cc(OC)c1OC` are 20.9 µM, 3.23 µM, 14.4 µM, 12.8 µM and 15.9 µM.
Turning to `COc1cc(-c2nc3cc(N4CCN(C)CC4)c(C#Cc4ccc(C(F)(F)F)cc4)cc3[nH]2)cc(OC)c1OC`, the figures for the IC50 with SiHa [1], in the data set on HeLa and in the data set with Ca-Ski were 6.54 µM, 3.13 µM and 1.38 µM, respectively. The IC50 at 48 h was determined as 2.3 µM in data set [2] and 1.41 µM in data set [3].
Consider `COc1cc(OC)c(-c2nc3cc(N4CCOCC4)c(C#Cc4ccccc4)cc3[nH]2)cc1OC`, for which the IC50 in the data set with SiHa [1] came to 25.1 µM; in the data set on HeLa, 19.3 µM; in the data set with Ca-Ski it was 19.5 µM. Also, the 50% inhibitory concentration (IC50) at 48 h in [2] is 34.1 µM; in [3] it was 13.2 µM.
As to `COc1cc(OC)c(-c2nc3cc(N4CCN(C)CC4)c(C#Cc4ccccc4)cc3[nH]2)cc1OC`, the results for the half-maximal inhibitory concentration (IC50) with SiHa [1], in the data set on HeLa and in the data set with Ca-Ski were 6.16 µM, 5.25 µM and > 100 µM, respectively. Also, the figures for the 50% inhibitory concentration (IC50) at 48 h in [2] and in data set [3] were 6.59 µM and 4.07 µM, respectively.
The corresponding values for `COc1cc(-c2nc3cc(N4CCN(C)CC4)c(C#Cc4ccccc4Cl)cc3[nH]2)cc(OC)c1OC` are 1.4 µM, 1.73 µM, 3.15 µM, 1.29 µM and 0.8 µM.
For `Nc1cc(C(F)(F)F)c(-c2cc(N3CCOCC3)nc(N3CCOCC3)n2)cn1` [BUPARLISIB], the results for the 50% inhibitory concentration (IC50) in the data set with SiHa [1], with HeLa and in the data set on Ca-Ski were 11.9 µM, 9.06 µM and 0.74 µM, respectively. Besides, the IC50 at 48 h in data set [2] was determined as 59.2 µM; in data set [3], 6.11 µM. In addition, the Activity in the data set on SiHa [4] is on record as 7.83%; in the data set with SiHa [5], 10.27%; in the data set with SiHa [6], 62.27%; in the data set on SiHa [7] it was 28.47%; in the data set with SiHa [8], 11.27%; in data set [10], 0%. For the same molecule, in [9], the mortality at 96 h, 400 µM came to 0%.
As for `COc1cc(-c2nc3cc(N4CCOCC4)c(C#Cc4ccccc4)cc3[nH]2)cc(OC)c1OC`, the IC50 in the data set with SiHa [1] is 7.07 µM; in the data set on HeLa it was 8.07 µM; with Ca-Ski, 6.45 µM. Also, the values for the IC50 at 48 h in data set [2] and in [3] were 9.09 µM and 3.73 µM, respectively.
The corresponding values for `COc1cc(-c2nc3cc(N4CCOCC4)c(/C=C/C(=O)N(C)C)cc3[nH]2)cc(OC)c1OC` are > 100 µM, 14.5 µM, 48.5 µM, > 100 µM and 2.53 µM.
The corresponding values for `COc1cc(OC)c(-c2nc3cc(N4CCN(C)CC4)c(C#Cc4ccc(Cl)cc4)cc3[nH]2)cc1OC` are 3.03 µM, 1.61 µM, > 100 µM, 1.38 µM and 1.64 µM.
The corresponding values for `COc1cc(OC)c(-c2nc3cc(N4CCN(C)CC4)c(C#Cc4ccccc4Cl)cc3[nH]2)cc1OC` are 6.07 µM, 2.96 µM, 5.34 µM, 2.04 µM and 4.55 µM.
Consider `COc1cc(OC)c(-c2nc3cc(N4CCOCC4)c(C#Cc4ccccc4Cl)cc3[nH]2)cc1OC`, for which the half-maximal inhibitory concentration (IC50) with SiHa [1] was determined as 24.4 µM; in the data set with HeLa, 16.9 µM; with Ca-Ski, 22.5 µM. In addition, the results for the half-maximal inhibitory concentration (IC50) at 48 h in data set [2] and in data set [3] were 18.9 µM and 0.68 µM, respectively.
The corresponding values for `COc1cc(OC)c(-c2nc3cc(N4CCOCC4)c(C#Cc4ccc(C(F)(F)F)cc4)cc3[nH]2)cc1OC` are > 100 µM, 29.3 µM, > 100 µM, > 100 µM and > 100 µM.
The corresponding values for `COc1cc(-c2nc3cc(N4CCOCC4)c(/C=C/C(=O)NC(C)(C)C)cc3[nH]2)cc(OC)c1OC` are 17 µM, 4.21 µM, 16 µM, 9.92 µM and 11.7 µM.
The corresponding values for `COc1cc(-c2nc3cc(N4CCN(C)CC4)c(C#Cc4ccc(Cl)cc4)cc3[nH]2)cc(OC)c1OC` are 5.49 µM, 3.45 µM, 3.97 µM, 2.07 µM and 4.12 µM.
In the case of `COc1cc(-c2nc3cc(N4CCN(C)CC4)c(C#Cc4ccccc4)cc3[nH]2)cc(OC)c1OC`, the half-maximal inhibitory concentration (IC50) with SiHa [1] is 5.05 µM; in the data set on HeLa, 4.96 µM; in the data set on Ca-Ski it was 4.34 µM. Further, the IC50 at 48 h in data set [2] came to 3.82 µM; in data set [3], 1.2 µM.
For `COc1cc(-c2nc3cc(N4CCOCC4)c(C#Cc4ccccc4Cl)cc3[nH]2)cc(OC)c1OC`, the IC50 in the data set with SiHa [1] is 7.81 µM; in the data set on HeLa it was 10.4 µM; in the data set with Ca-Ski, 13.5 µM. The IC50 at 48 h was > 100 µM in [2] and 5.37 µM in data set [3].
The corresponding values for `COc1ccc(C#Cc2cc3[nH]c(-c4cc(OC)c(OC)c(OC)c4)nc3cc2N2CCOCC2)cc1` are 26.8 µM, 3.67 µM, 9.11 µM, 8.82 µM and 2.18 µM.
The corresponding values for `COc1cc(OC)c(-c2nc3cc(N4CCOCC4)c(C#Cc4ccc(Cl)cc4)cc3[nH]2)cc1OC` are > 100 µM, 16.7 µM, > 100 µM, > 100 µM and 36.1 µM.
